Measurements as given in patent publication US20250340574A1, “MODULATORS OF CYSTIC FIBROSIS TRANSMEMBRANE CONDUCTANCE REGULATOR” (Vertex Pharmaceuticals Incorporated, priority 2022, published 2025).

What follows are compounds tested against T1, CFTR (F508del/MF-HBE cells) (Homo sapiens, UniProt P13569, DEL508-508) (assay: Ussing chamber assay of CFTR-mediated short-circuit currents, Assay D (single concentration of 1 μM)). Settings: with 44 nM potentiator and 18 μM Tezacaftor, 18-24 hours, 20% human serum.
T1 construct: human bronchial epithelial (HBE) cells derived from CF subjects heterozygous for F508del and a minimal function CFTR mutation (F508del/MF-HBE); endogenous in cells; host or cells: Primary human bronchial epithelial cells from CF subjects (F508del/MF genotype), differentiated at an air-liquid interface
T1 sequence (P13569 with tags, fused parts or gaps DEL508-508): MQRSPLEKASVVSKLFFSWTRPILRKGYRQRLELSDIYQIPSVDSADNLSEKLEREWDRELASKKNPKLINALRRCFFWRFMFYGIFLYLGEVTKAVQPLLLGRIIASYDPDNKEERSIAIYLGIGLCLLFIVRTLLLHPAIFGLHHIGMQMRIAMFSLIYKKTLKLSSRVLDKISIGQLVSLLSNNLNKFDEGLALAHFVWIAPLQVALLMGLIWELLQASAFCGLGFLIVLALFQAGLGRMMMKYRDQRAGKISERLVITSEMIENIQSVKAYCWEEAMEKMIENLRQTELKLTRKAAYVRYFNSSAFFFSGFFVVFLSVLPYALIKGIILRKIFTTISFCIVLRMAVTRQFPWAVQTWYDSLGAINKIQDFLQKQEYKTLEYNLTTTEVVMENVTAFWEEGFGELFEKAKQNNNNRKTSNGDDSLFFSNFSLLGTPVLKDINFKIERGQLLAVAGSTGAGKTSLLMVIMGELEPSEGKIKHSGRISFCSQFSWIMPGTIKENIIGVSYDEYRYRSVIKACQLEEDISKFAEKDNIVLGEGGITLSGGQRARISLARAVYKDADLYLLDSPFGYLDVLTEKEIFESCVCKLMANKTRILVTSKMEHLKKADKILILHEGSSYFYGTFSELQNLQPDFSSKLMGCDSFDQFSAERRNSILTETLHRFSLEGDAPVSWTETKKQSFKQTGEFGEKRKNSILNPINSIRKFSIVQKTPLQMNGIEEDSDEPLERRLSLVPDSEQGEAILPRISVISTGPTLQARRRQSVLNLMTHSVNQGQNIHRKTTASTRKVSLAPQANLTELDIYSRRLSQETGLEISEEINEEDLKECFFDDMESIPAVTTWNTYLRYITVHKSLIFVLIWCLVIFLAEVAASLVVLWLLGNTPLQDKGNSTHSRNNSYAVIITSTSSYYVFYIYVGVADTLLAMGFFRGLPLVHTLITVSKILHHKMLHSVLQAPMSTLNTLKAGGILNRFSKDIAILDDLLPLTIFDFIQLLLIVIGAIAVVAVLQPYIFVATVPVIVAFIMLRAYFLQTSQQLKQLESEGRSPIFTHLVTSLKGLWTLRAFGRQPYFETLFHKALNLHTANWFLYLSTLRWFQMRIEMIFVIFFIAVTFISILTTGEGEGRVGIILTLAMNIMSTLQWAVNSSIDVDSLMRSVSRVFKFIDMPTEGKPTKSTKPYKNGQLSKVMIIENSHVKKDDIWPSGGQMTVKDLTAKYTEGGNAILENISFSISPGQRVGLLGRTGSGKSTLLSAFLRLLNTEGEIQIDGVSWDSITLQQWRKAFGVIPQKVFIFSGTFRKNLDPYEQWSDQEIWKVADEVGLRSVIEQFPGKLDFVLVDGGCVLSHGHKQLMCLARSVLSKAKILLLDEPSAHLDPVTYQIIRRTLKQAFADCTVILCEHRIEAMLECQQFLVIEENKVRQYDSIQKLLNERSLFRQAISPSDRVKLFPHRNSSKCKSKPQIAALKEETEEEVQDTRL
Type: cell-based
Summary of the method: (§1)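 F508del/MF-HBE cells were preincubated 18–24 h at 37 °C in 20% human serum with corrector plus 18 μM tezacaftor and either 33 nM (concentration series) or 44 nM (1 μM single point) of the aminotrifluoromethyl triazatricyclic potentiator. Ussing chamber, Vhold=0 mV, 37 °C; forskolin 20 μM stimulation, CFTR ISC taken as inhibitor-cocktail-sensitive current.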
With `Cc1cccc(CC(C)C)c1-c1nc2nc(c1C)OC[C@@H](CC(C)(C)C)N(Cc1cnc3oc(C4CC4)cc3n1)C(=O)c1cccc(c1)S(=O)(=O)N2` (atropisomer, axis not shown) [Compound I-137] the “D activity at 1 μM (%)” value was “+++ (+++ is >60%)”. For `Cc1cccc(CC(C)C)c1-c1nc2nc(c1C)OC[C@@H](CC(C)(C)C)N(Cc1cnc3nc(C4CC4)n(C)c3n1)C(=O)c1cccc(c1)S(=O)(=O)N2` (atropisomer, axis not shown) [Compound I-170], the “D activity at 1 μM (%)” value was “+++ (+++ is >60%)”. In the case of `Cc1cccc(C)c1-c1cc2nc(n1)NS(=N)(=O)c1cccc(c1)C(=O)N(Cc1cnc3oc(C4CC4)cc3n1)[C@H](CC(C)(C)C)CO2` (stereo partly drawn) [Compound I-148, (11R)-12-[(6-cyclopropylfuro[2,3-b]pyrazin-2-yl)methyl]-6-(2,6-dimethylphenyl)-11-(2,2-dimethylpropyl)-2-imino-2-oxo-9-oxa-2λ^6-thia-3,5,12,19-tetrazatricyclo[12.3.1.14,8]nonadeca-1(18),4(19),5,7,14,16-hexaen-13-one], the “D activity at 1 μM (%)” value is reported as “+++ (+++ is >60%)”. For `Cc1cccc(C)c1-c1nc2nc(c1C)OC[C@@H](CCC(C)(C)C)N(Cc1cnc3oc(C4CC4)cc3n1)C(=O)c1cccc(c1)S(=O)(=O)N2` [Compound I-184], the “D activity at 1 μM (%)” value was “+++ (+++ is >60%)”. In the case of `Cc1cccc(C)c1-c1cc2nc(n1)NS(=O)(=O)c1cccc(c1)C(=O)N(Cc1nc3cc(C(C)(C)C)oc3cc1F)[C@H](CC1(C)CC1)CO2` [Compound I-243], the “D activity at 1 μM (%)” value is reported as “+++ (+++ is >60%)”. `Cc1cccc(C)c1-c1cc2nc(n1)NS(=O)(=O)c1cccc(c1)C(=O)N(Cc1cnc3oc(C(C)C)c(C(F)(F)F)c3n1)[C@H](CCC1(C)CC1)CO2` (stereo in doubt) [Compound I-127] was tested, and the “D activity at 1 μM (%)” value was “+++ (+++ is >60%)”. With `Cc1cccc(OC(C)C)c1-c1nc2nc(c1C)OC[C@@H](CC(C)(C)C)N(Cc1cnc3cc(C(C)(C)C)n(C)c3n1)C(=O)c1cccc(c1)S(=O)(=O)N2` (atropisomer, axis not shown) [Compound I-261] the “D activity at 1 μM (%)” value was “+++ (+++ is >60%)”. With `Cc1cccc(C)c1-c1cc2nc(n1)NS(=O)(=O)c1cccc(c1)C(=O)N(Cc1cnc3oc(C4CC4)cc3n1)[C@@H](CC1CC(C)(C)C1)CO2` (single isomer, unassigned) [Compound I-166, 12-[(6-cyclopropylfuro[2,3-b]pyrazin-2-yl)methyl]-11-[(3,3-dimethylcyclobutyl)methyl]-6-(2,6-dimethylphenyl)-2,2-dioxo-9-oxa-2λ^6-thia-3,5,12,19-tetrazatricyclo[12.3.1.14,8]nonadeca-1(18),4(19),5,7,14,16-hexaen-13-one] the “D activity at 1 μM (%)” value was “++ (++ is 30-60%)”. In the case of `Cc1cccc(C)c1-c1cc2nc(n1)NS(=O)(=O)c1cccc(c1)C(=O)N(Cc1nc3c(cc1F)nc(C(C)C)n3C)[C@H](CC1(C)CC1)CO2` [Compound I-79], the “D activity at 1 μM (%)” value is reported as “+++ (+++ is >60%)”. With `Cc1cccc(C)c1-c1cc2nc(n1)NS(=O)(=O)c1cccc(c1)C(=O)N(Cc1cnc3oc(C(C)C)c(C#N)c3n1)[C@H](CC(C)(C)C)CO2` [Compound I-74] the “D activity at 1 μM (%)” value was “+++ (+++ is >60%)”. In the case of `Cc1cccc(C)c1-c1cc2nc(n1)NS(=O)(=O)c1cccc(c1)C(=O)N(Cc1cnc3oc(C4CC4)cc3n1)[C@H](C[C@@H]1CCCO1)CO2` (stereo in doubt) [Compound I-45], the “D activity at 1 μM (%)” value is reported as “+++ (+++ is >60%)”. In the case of `Cc1cccc(C)c1-c1cc2nc(n1)NS(=O)(=O)c1cccc(c1)C(=O)N(Cc1ncc3oc(C(C)(C)C)cc3n1)[C@H](CC1(C)CC1)CO2` [Compound I-252], the “D activity at 1 μM (%)” value is reported as “+++ (+++ is >60%)”. `Cc1cccc(C)c1-c1cc2nc(n1)NS(=O)(=O)c1cccc(c1)C(=O)N(Cc1nc3cc(C4(C)CC4)oc3cc1F)[C@H](CC13CC(C1)C3)CO2` [Compound I-233] was tested, and the “D activity at 1 μM (%)” value was “+++ (+++ is >60%)”. `Cc1cccc(C)c1-c1nc2nc(c1C)OC[C@@H](CC1(C)CC1)N(Cc1cnc3oc(C(C)(C)C)cc3n1)C(=O)c1cccc(c1)S(=O)(=O)N2` [Compound I-221] was tested, and the “D activity at 1 μM (%)” value was “+++ (+++ is >60%)”. For `Cc1cccc(C)c1-c1cc2nc(n1)NS(=O)(=O)c1cccc(c1)C(=O)N(Cc1cnc3oc(C(C)C)cc3n1)[C@H](COC1CC1)CO2` [Compound I-109], the “D activity at 1 μM (%)” value was “+++ (+++ is >60%)”. In the case of `Cc1cccc(C)c1-c1cc2nc(n1)NS(=O)(=O)c1cccc(c1)C(=O)N(Cc1cnc3oc(C(C)C)c(Cl)c3n1)[C@H](COC(C)C)CO2` [Compound I-162], the “D activity at 1 μM (%)” value is reported as “+++ (+++ is >60%)”. For `Cc1cccc(C)c1-c1cc2nc(n1)NS(=O)(=O)c1cccc(c1)C(=O)N(Cc1cnc3oc(C4CC4)cc3n1)[C@@H](C1CC(C)(C)C1)CO2` [Compound I-163], the “D activity at 1 μM (%)” value was “+++ (+++ is >60%)”. In the case of `Cc1cccc(C)c1-c1cc2nc(n1)NS(=O)(=O)c1cccc(c1)C(=O)N(Cc1cnc3oc(C(C)C)cc3n1)[C@H](CC1(F)CCC1)CO2` [Compound I-124], the “D activity at 1 μM (%)” value is reported as “+++ (+++ is >60%)”. In the case of `Cc1cccc(C)c1-c1cc2nc(n1)NS(=N)(=O)c1cccc(c1)C(=O)N(Cc1cnc3oc(C4CC4)cc3n1)[C@H](CC(C)(C)C)CO2` (single isomer, unassigned) [Compound I-147], the “D activity at 1 μM (%)” value is reported as “+++ (+++ is >60%)”. `Cc1cccc(C)c1-c1nc2nc(c1C)OC[C@@H](CC13CC(C1)C3)N(Cc1cnc3oc(C(C)(C)C)cc3n1)C(=O)c1cccc(c1)S(=O)(=O)N2` [Compound I-223] was tested, and the “D activity at 1 μM (%)” value was “+++ (+++ is >60%)”. For `Cc1cccc(C)c1-c1cc2nc(n1)NS(=O)(=O)c1cccc(c1)C(=O)N(Cc1cnc3oc(C4CC4)cc3n1)[C@@H](CC1CC(C)(C)C1)CO2` (single isomer, unassigned) [Compound I-165, 12-[(6-Cyclopropylfuro[2,3-b]pyrazin-2-yl)methyl]-11-[(3,3-dimethylcyclobutyl)methyl]-6-(2,6-dimethylphenyl)-2,2-dioxo-9-oxa-2λ^6-thia-3,5,12,19-tetrazatricyclo[12.3.1.14,8]nonadeca-1(18),4(19),5,7,14,16-hexaen-13-one], the “D activity at 1 μM (%)” value was “+++ (+++ is >60%)”. In the case of `COC1(C[C@@H]2COc3cc(-c4c(C)cccc4C)nc(n3)NS(=O)(=O)c3cccc(c3)C(=O)N2Cc2cnc3oc(C(C)C)cc3n2)CCC1` [Compound I-76], the “D activity at 1 μM (%)” value is reported as “+++ (+++ is >60%)”. For `Cc1cccc(C)c1-c1cc2nc(n1)NS(=O)(=O)c1cccc(c1)C(=O)N(Cc1cnc3oc(C(C)C)c(N)c3n1)[C@H](CC1(C)CC1)CO2` [Compound I-237, (11R)-12-[(7-Amino-6-isopropyl-furo[2,3-b]pyrazin-2-yl)methyl]-6-(2,6-dimethylphenyl)-11-[(1-methylcyclopropyl)methyl]-2,2-dioxo-9-oxa-2λ^6-thia-3,5,12,19-tetrazatricyclo[12.3.1.14,8]nonadeca-1(18),4(19),5,7,14,16-hexaen-13-one], the “D activity at 1 μM (%)” value was “+++ (+++ is >60%)”. `Cc1cccc(C)c1-c1cc2nc(n1)NS(=O)(=O)c1cccc(c1)C(=O)N(Cc1cnc3oc(C4CC4)cc3n1)[C@H](COC1CC1)CO2` [Compound I-115] was tested, and the “D activity at 1 μM (%)” value was “+++ (+++ is >60%)”. In the case of `Cc1cccc(CCC(C)C)c1-c1nc2nc(c1C)OC[C@@H](CC(C)(C)C)N(Cc1cnc3oc(C4CC4)cc3n1)C(=O)c1cccc(c1)S(=O)(=O)N2` (atropisomer, axis not shown) [Compound I-205], the “D activity at 1 μM (%)” value is reported as “+++ (+++ is >60%)”. In the case of `Cc1cccc(C)c1-c1cc2nc(n1)NS(=O)(=O)c1cccc(c1)C(=O)N(Cc1nc3cc(C(C)C)oc3cc1F)[C@H](COC(C)C)CO2` [Compound I-77], the “D activity at 1 μM (%)” value is reported as “+++ (+++ is >60%)”. In the case of `Cc1cccc(C)c1-c1cc2nc(n1)NS(=O)(=O)c1cccc(c1)C(=O)N(Cc1cnc3oc(C)c(C4CC4)c3n1)[C@H](CC(C)(C)C)CO2` [Compound I-28], the “D activity at 1 μM (%)” value is reported as “+++ (+++ is >60%)”. With `Cc1cccc(C)c1-c1cc2nc(n1)NS(=O)(=O)c1cccc(c1)C(=O)N(Cc1cnc3oc(C4CC4)cc3n1)[C@H](CC(C)C)CO2` [Compound I-156] the “D activity at 1 μM (%)” value was “+++ (+++ is >60%)”. For `Cc1cccc(C)c1-c1nc2nc(c1C)OC[C@@H](COC(C)C)N(Cc1cnc3cc(C(C)C)n(C)c3n1)C(=O)c1cccc(c1)S(=O)(=O)N2` [Compound I-189], the “D activity at 1 μM (%)” value was “+++ (+++ is >60%)”. For `Cc1cccc(C)c1-c1cc2nc(n1)NS(=O)(=O)c1cccc(c1)C(=O)N(Cc1nc3cc(C4(C)CC4)oc3cc1F)[C@H](COC(C)C)CO2` [Compound I-253], the “D activity at 1 μM (%)” value was “+++ (+++ is >60%)”.

Same assay, conditions: with 44 nM potentiator and 18 μM Tezacaftor, 20% human serum
For `Cc1cccc(C)c1-c1cc2nc(n1)NS(=O)(=O)c1cccc(c1)C(=O)N(Cc1cnc3cc(C(C)(C)C)n(C)c3n1)[C@@H](C(C(C)C)C(C)C)CO2` [IV-32], the “D act. at 1 μM (%)” value was “+++ (+++ is >60%)”. `Cc1cccc(C)c1-c1cc2nc(n1)NS(=O)(=O)c1cccc(c1)C(=O)N(Cc1cnc3oc(C(C)(C)C)cc3n1)[C@@H](CCC1(C)CC1)CO2` [IV-10] was tested, and the “D act. at 1 μM (%)” value was “+++ (+++ is >60%)”.

These compounds were tested against T1, CFTR (F508del/MF-HBE cells) (assay: Ussing chamber assay of CFTR-mediated short-circuit currents, Assay C (0.026 μM to 25 μM, 6 concentrations)). Settings: with 33 nM potentiator and 18 μM Tezacaftor, 18-24 hours, 20% human serum, read-out: C Max activity (%).
Type: cell-based
Summary of the method: as §1
In the case of `Cc1cccc(CC(C)C)c1-c1nc2nc(c1C)OC[C@@H](CC(C)(C)C)N(Cc1cnc3oc(C4CC4)cc3n1)C(=O)c1cccc(c1)S(=O)(=O)N2` (atropisomer, axis not shown) [Compound I-137], the Emax is reported as over 60%. Work on `Cc1cccc(CC(C)C)c1-c1nc2nc(c1C)OC[C@@H](CC(C)(C)C)N(Cc1cnc3nc(C4CC4)n(C)c3n1)C(=O)c1cccc(c1)S(=O)(=O)N2` (atropisomer, axis not shown) [Compound I-170] yielded an Emax of over 60%.

Same assay, conditions: with 33 nM potentiator and 18 μM Tezacaftor, 20% human serum
In the case of `Cc1cccc(CC(C)C)c1-c1nc2nc(c1C)OC[C@@H](CC(C)(C)C)N(Cc1cnc3oc(C4CC4)cc3n1)C(=O)c1cccc(c1)S(=O)(=O)N2` (atropisomer, axis not shown) [Compound I-137], the EC50 is reported as under 1000 nM. `Cc1cccc(C)c1-c1cc2nc(n1)NS(=O)(=O)c1cccc(c1)C(=O)N(Cc1cnc3cc(C(C)(C)C)n(C)c3n1)[C@@H](C(C(C)C)C(C)C)CO2` [IV-32] gave an EC50 of under 1000 nM. In the case of `Cc1cccc(CC(C)C)c1-c1nc2nc(c1C)OC[C@@H](CC(C)(C)C)N(Cc1cnc3nc(C4CC4)n(C)c3n1)C(=O)c1cccc(c1)S(=O)(=O)N2` (atropisomer, axis not shown) [Compound I-170], the EC50 is reported as under 1000 nM.

Same assay, conditions: with 33 nM potentiator and 18 μM Tezacaftor, 20% human serum, read-out: C Max activity (%)
`Cc1cccc(C)c1-c1cc2nc(n1)NS(=O)(=O)c1cccc(c1)C(=O)N(Cc1cnc3cc(C(C)(C)C)n(C)c3n1)[C@@H](C(C(C)C)C(C)C)CO2` [IV-32] showed an Emax of over 60%.
